Test results: the supplement of paper PMC11451515

What was measured:
P12-Ichikawa [1] = assay: AUC of viability dose-response curve (% viability x log10 dose units); higher = less sensitive; details: 48 h
In short: (§1)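 Leukemia cells adapted to each medium were seeded at 500 or 1000 cells/well in 1536-well plates and dosed with library compounds in DMSO at 11 threefold doses from 47 μM to 0.79 nM for 48 h at 37°C. CellTiter-Glo One luminescence was normalised per plate to DMSO and cell-free wells, then fitted with a four-parameter log-logistic model over log10 doses. Area under the curve was taken from this fit by the trapezoidal rule, with curves above full viability scaled and curves failing quality control removed.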

SEM cells [2] = assay: as above; details: 48 h
In short: as §1

NOMO1 = assay: as above; details: 48 h
In short: as §1

SEM cells [3] = assay: cell viability relative to DMSO control; higher = less cytotoxic; details: HPLM + 10% dialyzed FBS, 48 h
In short: (§2)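 Library compounds in DMSO were pin-dosed in an 11-point threefold series (47 μM to 0.79 nM) onto leukemia cells in 1536-well plates (5 μl). Plates held 500 cells/well of NOMO1 or SEM or 1000 cells/well of P12-Ichikawa, each adapted for at least four passages in each medium. Luminescence was read with CellTiter-Glo One after 48 h at 37°C. Viability means the per-plate percentage relative to DMSO wells, using cell-free wells as background.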

P12-Ichikawa [4] = assay: as above; details: 48 h
In short: as §2

C=CCO/N=C(/C[C@H]1O[C@@H]2O[C@]3(C)CC[C@H]4[C@H](C)CC[C@@H]([C@H]1C)[C@@]24OO3)[C@H]1O[C@@H]2O[C@]3(C)CC[C@H]4[C@H](C)CC[C@@H]([C@H]1C)[C@@]24OO3
AUC of viability dose-response curve
Details | NOMO1 | P12-Ichikawa [1] | SEM cells [2]
HPLM + 10% dialyzed FBS | 347 | 397 | 350
RPMI 5 mM glucose + 10% FBS | 340 | 357 | 329
RPMI 5 mM glucose + 10% dialyzed FBS | 338 | 359 | 328

C[C@@H]1C[C@H]2[C@@H]3\C=C(C)/C4=C/C5=C(C[C@]4(C)[C@H]3[C@@H](O)C[C@]2(C)[C@@]1(O)C(=O)CO)C=N[N]5C6=CC=CC=C6
Details | AUC of viability dose-response curve | cell viability [%]
NOMO1, HPLM + 10% dialyzed FBS | 425 | –
NOMO1, RPMI 5 mM glucose + 10% FBS | 446 | –
NOMO1, RPMI 5 mM glucose + 10% dialyzed FBS | 461 | –
P12-Ichikawa [1], HPLM + 10% dialyzed FBS | 308 | –
P12-Ichikawa [1], RPMI 5 mM glucose + 10% FBS | 280 | –
P12-Ichikawa [1], RPMI 5 mM glucose + 10% dialyzed FBS | 246 | –
SEM cells [2], HPLM + 10% dialyzed FBS | 296 | –
SEM cells [2], RPMI 5 mM glucose + 10% FBS | 300 | –
SEM cells [2], RPMI 5 mM glucose + 10% dialyzed FBS | 267 | –
SEM cells [3], 0.000781 µM | – | 143
SEM cells [3], 0.00234 µM | – | 123
SEM cells [3], 0.00702 µM | – | 112
SEM cells [3], 0.0211 µM | – | 109
SEM cells [3], 0.0632 µM | – | 101
SEM cells [3], 0.19 µM | – | 71.2
SEM cells [3], 0.569 µM | – | 66.9
SEM cells [3], 1.71 µM | – | 64.9
SEM cells [3], 5.12 µM | – | 72.3
SEM cells [3], 15.4 µM | – | 57.7
SEM cells [3], 46.1 µM | – | 36.4

C[S+](=O)([O-])CCNCc1ccc(-c2ccc3ncnc(Nc4ccc(OCc5cccc(F)c5)c(Cl)c4)c3c2)o1
AUC of viability dose-response curve
Details | NOMO1 | P12-Ichikawa [1] | SEM cells [2]
HPLM + 10% dialyzed FBS | 456 | 448 | 442
RPMI 5 mM glucose + 10% FBS | 451 | 453 | 418
RPMI 5 mM glucose + 10% dialyzed FBS | 444 | 429 | 440

NC(=O)c1ccc2[nH]c(-c3ccc(Oc4ccc(Cl)cc4)cc3)nc2c1
Details | AUC of viability dose-response curve | cell viability [%]
NOMO1, HPLM + 10% dialyzed FBS | 457 | –
NOMO1, RPMI 5 mM glucose + 10% FBS | 472 | –
NOMO1, RPMI 5 mM glucose + 10% dialyzed FBS | 475 | –
P12-Ichikawa [1], HPLM + 10% dialyzed FBS | 463 | –
P12-Ichikawa [1], RPMI 5 mM glucose + 10% FBS | 454 | –
P12-Ichikawa [1], RPMI 5 mM glucose + 10% dialyzed FBS | 453 | –
SEM cells [2], HPLM + 10% dialyzed FBS | 470 | –
SEM cells [2], RPMI 5 mM glucose + 10% FBS | 446 | –
SEM cells [2], RPMI 5 mM glucose + 10% dialyzed FBS | 463 | –
SEM cells [3], 0.000781 µM | – | 115
SEM cells [3], 0.00234 µM | – | 113
SEM cells [3], 0.00702 µM | – | 136
SEM cells [3], 0.0211 µM | – | 121
SEM cells [3], 0.0632 µM | – | 117
SEM cells [3], 0.19 µM | – | 65.4
SEM cells [3], 0.569 µM | – | 133
SEM cells [3], 1.71 µM | – | 124
SEM cells [3], 5.12 µM | – | 134
SEM cells [3], 15.4 µM | – | 118
SEM cells [3], 46.1 µM | – | 91.9

CC[S+](=O)([O-])N1CC(CC#N)(n2cc(-c3ncnc4[nH]ccc34)cn2)C1
AUC of viability dose-response curve
Details | NOMO1 | P12-Ichikawa [1] | SEM cells [2]
HPLM + 10% dialyzed FBS | 441 | 452 | 449
RPMI 5 mM glucose + 10% FBS | 451 | 454 | 457
RPMI 5 mM glucose + 10% dialyzed FBS | 471 | 443 | 450

CN(C)c1cc(NC(=O)CNC(C)(C)C)c(O)c2c1C[C@H]1C[C@H]3[C@H](N(C)C)C(O)=C(C(N)=O)C(=O)[C@@]3(O)C(O)=C1C2=O
AUC of viability dose-response curve
Details | NOMO1 | P12-Ichikawa [1] | SEM cells [2]
HPLM + 10% dialyzed FBS | 466 | 457 | 452
RPMI 5 mM glucose + 10% FBS | 471 | 470 | 453
RPMI 5 mM glucose + 10% dialyzed FBS | 457 | 454 | 436

COC(=O)N1CC2(CC2)C[C@H](C(=O)NO)[C@H]1C(=O)N1CCN(c2ccccc2)CC1
cell viability [%], P12-Ichikawa [4]
Details | HPLM + 10% dialyzed FBS | RPMI 5 mM glucose + 10% FBS
0.000781 µM | 122 | 121
0.00234 µM | 133 | 132
0.00702 µM | 119 | 119
0.0211 µM | 125 | 129
0.0632 µM | 117 | 136
0.19 µM | 114 | 143
0.569 µM | 24.5 | 122
1.71 µM | 30.1 | 99.6
5.12 µM | 16.7 | 14.2
15.4 µM | 10.6 | 9.97
46.1 µM | 7.08 | 7.58

Details | AUC of viability dose-response curve | cell viability [%]
NOMO1, HPLM + 10% dialyzed FBS | 297 | –
NOMO1, RPMI 5 mM glucose + 10% FBS | 310 | –
NOMO1, RPMI 5 mM glucose + 10% dialyzed FBS | 373 | –
P12-Ichikawa [1], HPLM + 10% dialyzed FBS | 290 | –
P12-Ichikawa [1], RPMI 5 mM glucose + 10% FBS | 357 | –
P12-Ichikawa [1], RPMI 5 mM glucose + 10% dialyzed FBS | 324 | –
SEM cells [3], 0.000781 µM | – | 110
SEM cells [3], 0.00234 µM | – | 128
SEM cells [3], 0.00702 µM | – | 123
SEM cells [3], 0.0211 µM | – | 116
SEM cells [3], 0.0632 µM | – | 128
SEM cells [3], 0.19 µM | – | 121
SEM cells [3], 0.569 µM | – | 113
SEM cells [3], 1.71 µM | – | 40.3
SEM cells [3], 5.12 µM | – | 19.8
SEM cells [3], 15.4 µM | – | 16.5
SEM cells [3], 46.1 µM | – | 6.78

Clc1ccc(COC(Cn2ccnc2)c2ccc(Cl)cc2Cl)c(Cl)c1 (stereo not given)
Details | AUC of viability dose-response curve | cell viability [%]
NOMO1, HPLM + 10% dialyzed FBS | 425 | –
NOMO1, RPMI 5 mM glucose + 10% FBS | 468 | –
NOMO1, RPMI 5 mM glucose + 10% dialyzed FBS | 452 | –
P12-Ichikawa [1], HPLM + 10% dialyzed FBS | 452 | –
P12-Ichikawa [1], RPMI 5 mM glucose + 10% FBS | 467 | –
P12-Ichikawa [1], RPMI 5 mM glucose + 10% dialyzed FBS | 419 | –
SEM cells [2], HPLM + 10% dialyzed FBS | 462 | –
SEM cells [2], RPMI 5 mM glucose + 10% FBS | 460 | –
SEM cells [2], RPMI 5 mM glucose + 10% dialyzed FBS | 449 | –
SEM cells [3], 0.000781 µM | – | 121
SEM cells [3], 0.00234 µM | – | 120
SEM cells [3], 0.00702 µM | – | 112
SEM cells [3], 0.0211 µM | – | 123
SEM cells [3], 0.0632 µM | – | 104
SEM cells [3], 0.19 µM | – | 115
SEM cells [3], 0.569 µM | – | 114
SEM cells [3], 1.71 µM | – | 124
SEM cells [3], 5.12 µM | – | 99.3
SEM cells [3], 15.4 µM | – | 109
SEM cells [3], 46.1 µM | – | 70
